Experimental data taken from ChEMBL document CHEMBL5523733, “Small Molecule Targeting PPM1A Activates Autophagy for Mycobacterium tuberculosis Host-Directed Therapy” (J Med Chem, 2024).

System: Mycobacterium tuberculosis
Experiment: Anti-mycobacterial activity against Mycobacterium tuberculosis mc2 6206 expressing autoluminescent luciferase infected in human THP-1 cells assessed as reduction in bacterial burden pretreated for 24 hrs followed by bacterial infection measured for 5 days post-infection with re-current replacement of media with compound for every 2 days by luminescence based assay
Type: functional, organism-based
Details: dose 0.5-5 µM, time 6.0 day

CCOc1ccc2c(c1)c[n+](CCO)c1ccc(F)cc21.[Br-]
Activity: Dose-Dependent Effect
